The values that follow are results of earlier work, collected in patent US5965423A, “Human lysophospholipase” (Incyte Pharmaceuticals, Inc., priority 1998, dated 1999).

The Km is the concentration of substrate that gives half-maximal velocity. In general, Vmax refers to the rate approached at saturating substrate.

The target in this data set is T1, monomeric, 24 kD lysophospholipase (LPL) from rat liver (Rattus norvegicus, UniProt P70470).
T1 construct: isolated a monomeric, 24 kD LPL from rat liver; host or cells: rat liver (tissue-purified enzyme, Sugimoto et al. 1996)
To be noted: substrate 1-palmitoyl-glycero-3-phosphocholine; substrate dependence curve sigmoidal.

T1 sequence (P70470 whole entry): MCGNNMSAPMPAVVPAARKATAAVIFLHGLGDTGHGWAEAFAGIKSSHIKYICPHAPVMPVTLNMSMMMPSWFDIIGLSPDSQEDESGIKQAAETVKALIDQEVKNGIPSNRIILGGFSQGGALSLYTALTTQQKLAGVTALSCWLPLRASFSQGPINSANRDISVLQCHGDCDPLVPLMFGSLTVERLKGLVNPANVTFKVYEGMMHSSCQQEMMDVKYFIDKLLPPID

Turning to `CCCCCCCCCCCCCCCC(=O)OCC(O)COP(=O)([O-])OCC[N+](C)(C)C` (centres unmarked) [1-palmitoyl-glycero-3-phosphocholine], the Km is 170 µM and the Vmax is 1.55 µM/min/mg.
